Test results: article PMC6315506 (Viruses, 2018)

How the values were obtained:
Conditions in all cases: 10 µM
HIV-1/H5N1 pseudovirus = experiment: organism not typed; type: cell-based, influenza A virus A/Goose/Qinghai/59/05 (H5N1)
A549 cells = system: A549 cells
HIV-1/EBOV pseudovirus = system: HIV-1/EBOV pseudovirus
HIV-1/LASV pseudovirus = experiment: microbe, parasite or virus in culture; type: cell-based

SMILES	Inhibition HIV/H5N1 (HIV-1/H5N1 pseudovirus) [%]	Cell Viability (A549 cells) [%]	Inhibition HIV/EBOV (HIV-1/EBOV pseudovirus) [%]	Inhibition HIV/LASV (HIV-1/LASV pseudovirus) [%]
CN(C)Cc1ccc(-c2cc3cc(Br)ccc3nc2OCc2cccc(F)c2)cc1 [SYL1715]	95.43	84.72	99.61	76.84
CN1CCN(c2ccc(-c3cc4cc(Br)ccc4nc3OCc3cccc4ccccc34)cn2)CC1 [SYL1687]	31.90	78.11	99.94	88.94
COc1nc2ccc(Br)cc2cc1C(c1ccccc1)N1CCN(C)c2ccccc21 (stereo not shown) [SYL1628]	-5.51	86.44	99.91	86.50
CN(C)Cc1cccc(-c2cc3cc(Br)ccc3nc2Oc2ccncc2)c1 [SYL1648]	37.82	84.21	99.91	89.27
CN(C)CCN1CCN(Cc2ccc(-c3cc4cc(Br)ccc4nc3OCc3cccc4ccccc34)cc2)CC1 [SYL1688]	91.36	80.00	99.92	88.12
CN(C)CCCC(O)(c1ccccc1)c1cc2ccccc2nc1Oc1cccc2ccccc12 (stereo not shown) [SYL1635]	97.52	11.15	99.63	99.31
CCN(CC)CCc1ccc(-c2cc3cc(Br)ccc3nc2OCc2cccc3ccccc23)cc1 [SYL1671]	92.36	88.97	99.87	89.90
CN(C)CCN1CCN(c2ccc(-c3cc4cc(Br)ccc4nc3OCc3cccc4ccccc34)cc2)CC1 [SYL1710]	97.63	1.97	99.39	98.64
COc1ccc2nc(OCc3cccc4ccccc34)c(-c3ccc(CN(C)C)cc3)cc2c1 [SYL1702]	87.31	89.90	99.95	89.93
Fc1cccc(COc2nc3ccc(Br)cc3cc2-c2cccc(-c3ncco3)c2)c1 [SYL1650]	-15.72	81.60	99.92	87.63
CN(C)Cc1ccc(-c2cc3cc(Br)ccc3nc2OCc2ccccc2)cc1 [SYL1675]	98.13	88.37	99.89	91.37
CN(C)Cc1ccc(-c2cc3cc(Br)ccc3nc2N2CCN(C)CC2)cc1 [SYL1713]	97.68	1.24	99.58	99.40
COc1cccc(COc2nc3ccc(Br)cc3cc2-c2ccc(CN(C)C)cc2)c1 [SYL1707]	95.43	80.79	99.14	78.74
CN(C)CCOc1nc2ccc(Br)cc2cc1-c1ccc(CN(C)C)cc1 [SYL1723]	98.10	68.89	99.81	97.12
Brc1ccc2nc(OCc3cccc4ccccc34)c(-c3ccc(Cn4ccnc4)cc3)cc2c1 [SYL1691]	97.25	72.14	92.17	57.43
Brc1ccc2nc(OCc3cccc4ccccc34)c(-c3ccc(N4CCCC4)cc3)cc2c1 [SYL1686]	65.78	82.03	99.92	90.35
Brc1ccc2nc(OCc3cccc4ccccc34)c(-c3ccc(CN4CCN(Cc5ccccc5)CC4)cc3)cc2c1 [SYL1697]	-5.87	90.86	67.57	15.89
CN(C)Cc1cccc(-c2cc3cc(Br)ccc3nc2Sc2cccc(O)c2)c1 [SYL1639]	97.65	2.71	99.85	98.93
CN(C)Cc1ccc(-c2cc3cc(Br)ccc3nc2Oc2ccccc2)cc1 [SYL1676]	36.23	89.65	71.19	19.98
COc1nc2ccccc2cc1C(O)(Cc1cccc(F)c1)c1ccccc1CN1CCOCC1 (stereo not shown) [SYL1668]	74.86	79.06	99.87	86.46
COc1cc(-c2cc3cc(Br)ccc3nc2OCc2cccc3ccccc23)ccc1CN(C)C [SYL1709]	94.56	74.44	99.76	81.68
COc1nc2ccccc2cc1C(O)(Cc1cccc(F)c1)c1cccc(CN(C)C)c1 (stereo not shown) [SYL1659]	96.52	36.09	99.09	97.39

SMILES	Inhibition HIV/H5N1 (HIV-1/H5N1 pseudovirus) [%]	Cell Viability (A549 cells) [%]	Inhibition HIV/EBOV (HIV-1/EBOV pseudovirus) [%]	Inhibition HIV/LASV (HIV-1/LASV pseudovirus) [%]
Fc1cccc(COc2nc3ccc(Br)cc3cc2-c2cccc(Oc3ccccn3)c2)c1 [SYL1647]	44.09	82.66	99.94	89.08
CNCCc1ccc(-c2cc3cc(Br)ccc3nc2OCc2cccc3ccccc23)cc1 [SYL1672]	98.01	2.06	99.85	99.22
CN(C)Cc1cccc(-c2cc3cc(Br)ccc3nc2Nc2cccc3ccccc23)c1 [SYL1656]	49.96	77.79	79.70	51.43
COc1nc2ccc(Br)cc2cc1C(O)(Cc1cccc(F)c1)c1ccccc1CN(C)C (stereo not shown) [SYL1649]	79.45	81.62	99.90	90.46
CN(C)Cc1cccc(-c2cc3cc(Br)ccc3nc2OCc2cccc3ccccc23)c1 [SYL1638]	98.27	18.62	99.91	99.18
CN(C)Cc1ccc(-c2cc3cc(Br)ccc3nc2OCc2ccncc2)cc1 [SYL1696]	97.45	26.82	99.25	98.53
COc1ccc2nc(OCc3cccc4ccccc34)c(-c3cccc(CN(C)C)c3)cc2c1 [SYL1667]	85.49	83.17	99.94	85.91
CN(C)Cc1cccc(-c2cc3cc(Br)ccc3nc2OCCc2cccc3ccccc23)c1 [SYL1664]	50.44	84.59	99.90	86.44
COc1nc2ccc(Br)cc2cc1C(c1ccccc1)n1cc(CN(C)C)c2ccccc21 (stereo not shown) [SYL1629]	29.75	90.62	99.91	88.22
CN(C)CCC(O)(c1cccc(F)c1)C1c2ccccc2Sc2ccccc21 (stereo not shown) [SYL1634]	83.95	81.21	99.53	83.87
COc1ccc(CC(O)(c2ccccc2CN(C)C)c2cc3cc(OC)ccc3nc2OC)cc1 (stereo not shown) [SYL1663]	88.29	89.15	99.90	89.19
CN(C)CCC=C(c1ccccc1)c1cc2ccccc2nc1Oc1cccc2ccccc12.Cl [SYL1627]	49.35	89.09	99.84	87.33
CN1CCN(Cc2ccc(-c3cc4cc(Br)ccc4nc3OCc3cccc4ccccc34)cc2)CC1 [SYL1670]	91.10	82.37	99.92	77.77
COc1ccccc1COc1nc2ccc(Br)cc2cc1-c1ccc(CN(C)C)cc1 [SYL1705]	59.98	86.34	99.76	88.92
COc1cc(CN(C)C)ccc1-c1cc2cc(Br)ccc2nc1OCc1cccc2ccccc12 [SYL1716]	98.20	1.73	99.70	99.34
CN1CCN(c2ccc(-c3cc4cc(Br)ccc4nc3OCc3cccc4ccccc34)cc2)CC1 [SYL1669]	96.42	82.47	99.94	92.49
CN(C)c1ncc2cc(-c3cc4cc(Br)ccc4nc3OCc3cccc4ccccc34)ccc2n1 [SYL1692]	-2.23	87.98	48.65	11.86
CNCCNCc1ccc(-c2cc3cc(Br)ccc3nc2OCc2cccc3ccccc23)cc1 [SYL1679]	96.95	117.07	99.70	97.63
COc1nc2ccc(Br)cc2cc1C(Nc1ccccc1OCCN(C)C)c1ccccc1 (stereo not shown) [SYL1622]	96.99	77.49	99.12	83.38
CN(C)C(=O)c1cccc(-c2cc3ccccc3nc2Oc2cccc3ccccc23)c1 [SYL1646]	-23.29	83.55	99.92	82.50
CN(C)Cc1ccc(-c2cc3ccccc3nc2OCc2cccc3ccccc23)cc1 [SYL1701]	98.51	88.01	99.94	97.96
